From patent US12552811B2, “Immunosuppressant, and preparation method therefor and use thereof” (Abbisko Therapeutics Co., Ltd., priority 2020, dated 2026) come the findings set out here.

The target in data set [1] is interaction between PD-1 and PD-L1 (Homo sapiens (Human), UniProt Q9NZQ7). As to the kind of experiment: PD1-PDL1 HTRF binding activity test. The following applies: Cisbio PD-1/PD-L1 binding assay kit. As for the experimental part:
I. PD1-PDL1 HTRF Binding Activity Test
The effect of compounds of the examples of the present invention on the interaction between PD-1 and PD-L1 was determined by the PD-1/PD-L1 binding assay kit from Cisbio (#64ICP01PEG or 64ICP01PEH). The detailed experimental process was as follows: • 1) Pre-diluted compound solution, 4 μL of Tag1-PD-L1 and 4 μL of Tag2-PD1 were added to each well of a 384-well plate: • 2) After the mixture was incubated at room temperature for 15 min, 5 μL of anti-Tag1-Eu3+ antibody and 5 μL of anti-Tag2-XL665 antibody were then added; • 3) After incubated for 2 hrs at room temperature or overnight at 4° C., plates were read on Envision of Pelkin Elmer; and readings at 665 nm and 620 nm were recorded, and the ratio of the two readings was taken as a reading for each well; • 4) The reading of each well after compound treatment was compared with the reading of DMSO treated wells to obtain the percent inhibition of the compound; • 5) IC50 values of compounds and positive compounds of the examples of the present invention were determined by non-linear regression analysis of percent inhibition at different compound concentrations. II. Jurkat Reporter Gene Cellular Assay
For orientation: In TR-FRET formats the signal depends on donor and acceptor labels being close together.

A short description of data set [2]: Pharmacokinetic assay in mice. The following applies: male, mouse; ICR mice, PO 10 mg/kg, plasma. In kind it is in vivo. As for the experimental part:
III. Pharmacokinetic Assay in Mice
The purpose of this study was to study the pharmacokinetic behaviors of some compounds of the present invention, and administration routes were: per oral administration (PO) to ICR mice at a dose of 10 mg/kg.
The compounds used in this test came from the compounds of the specific examples of the present invention.
ICR mice, male, N=3, with the original source of Shanghai Sippr-BK Laboratory Animal Co. Ltd.
2.3 Preparation and Administration of Drug
The compounds were weighed, and dissolved in a solvent of 0.5% SDS+0.5% CMCNa. The mixture solutions were mixed well by shaking and ultrasonic treatment to obtain colorless clear solutions. The solutions were orally administered to nine mice after an overnight fast. The dosage of administration was 10 mg/kg.
• 1) With about 90 μL/time point, blood was drawn from the submaxillary vein, and heparin sodium was added for anticoagulation. The blood samples were placed onto the ice, and were centrifuged (centrifugation conditions: 8000 r/min, 6 min, 2-8° C.) within 1 hr to obtain plasmas. • 2) The time points for blood sampling were at 0 hr, 0.25 hr, 0.5 hr, 1 hr, 2 hrs, 4 hrs, 6 hrs, 8 hrs and 24 hrs after administration. The samples were stored in a refrigerator at −20° C. • 3) 40 μL of plasma sample was added to 160 μL of cold acetonitrile containing an internal standard, and the mixture solution was vortexed for 3 min and centrifuged at 11,000 r/min for 5 min. • 4) 100 μL of supernate was taken and added to 100 μL of water, and 5 μL of the sample was taken and analyzed by LC/MS/MS.
The compounds from some representative examples of the present invention were administered and tested according to the above method, and their prototype compounds were detected.

Data set [3] in a line: Jurkat reporter gene cellular assay. In kind it is cell-based. The following applies: Homo sapiens; Jurkat/NF-κB-luc/PD1 + Raji-PD-L1 coculture, OKT3 1 μg/mL, 6 hrs, activation fold; read-out: Cell Activity EC50. As for the experimental part:
The effect of compounds of the examples of the present invention and positive compounds on the interaction between PD-1 and PD-L1 expressed on cell surfaces, and the related influence on T cell functions, were determined by a Jurkat reporter gene cellular assay.
Briefly, the reporter gene plasmid of NF-κB-luc and the plasmid of human PD-1 were transfected into Jurkat cells to establish a stably transfected cell line capable of stably expressing both PD-1 and NF-κB-Luc reporter genes; the expression level of PD-1 on the cell surface was confirmed by flow cytometry; and the expression of the reporter gene was confirmed via the response of the reporter gene stimulated by OKT-3 and Raiji cells.
In addition, the plasmid of human PD-L1 was transfected into Raji cells to obtain a cell line capable of stably expressing PD-L1. Jurkat/NF-κB-luc/PD1 cells and Raji-PD-L1 cells were then cocultured and stimulated with OKT-3. On this basis, the compounds were added, and the enhancement of the signal pathway of T cell activation by the inhibitory effect of the compounds on the interaction between PD-1 and PD-L1 was evaluated by readings of reporter gene responses. The specific experimental process was as follows: • 1) 30 μL of compound or antibody solution was added to each well of a white 96-well plate (coming, 3610) at different diluted concentrations, and 10 μL of OKT3 (Biolegend, 317326) was then added (the final concentration of OKT3: 1 μg/mL); • 2) 20 μL of Raji-PD-L1 cell suspension was added to each well with 5*10^4 cells for each well, and was incubated in an incubator for 20 min: • 3) 20 μL of Jurkat/NF-κb-luc/PD-1 cell suspension was added to each well with 5*10^4 cells for each well, and well mixed, and 6 hrs later, Bright-glo (Promega, E2620) was applied and plates were read on Envision; • 4) The reading of each well treated with the compound was compared with the reading of each well treated with DMSO to obtain the activation fold of the compound; • 5) EC50 values of compounds and positive compounds of the examples of the present invention were determined by non-linear regression analysis of activation folds at different compound concentrations.
On the technique in general: In a reporter assay the amount or activity of a reporter protein is the signal.

pEC50, pIC50: −log10 of the molar value.

Chain of interaction between PD-1 and PD-L1 (Q9NZQ7 19-238): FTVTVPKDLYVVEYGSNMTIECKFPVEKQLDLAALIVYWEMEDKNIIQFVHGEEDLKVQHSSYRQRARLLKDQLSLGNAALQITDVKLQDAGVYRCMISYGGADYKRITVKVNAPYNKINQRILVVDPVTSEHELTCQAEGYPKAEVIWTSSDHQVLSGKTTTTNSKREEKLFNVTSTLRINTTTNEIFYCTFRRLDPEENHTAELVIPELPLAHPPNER

Regarding `CC(C)N1CCc2cc(C(=O)Nc3cccc(-c4cccc(NC(=O)c5nc6c(n5C)CCN(CCC57CC(C(=O)O)(C5)C7)C6)c4Cl)c3Cl)ncc2C1` [Example 60, 3-(2-(2-((2,2′-dichloro-3′-(7-isopropyl-5,6,7,8-tetrahydro-2,7-naphthyridine-3-carboxamido)-[1,1′-biphenyl]-3-yl)carbamoyl)-1-methyl-1,4,6,7-tetrahydro-5H-imidazo[4,5-c]pyridin-5-yl)ethyl)bicyclo [1.1.1]pentane-1-carboxylic acid], in data set [1], the pIC50 – broadly, −log10 of the IC50, conventionally taken in molar units – was 9.60. Further, in data set [2], the area under the curve AUC(0-t) – broadly, the area under the concentration-time curve up to a stated or last time point – was 4250 ng·h/mL; the Cmax – broadly, the peak of the concentration-time curve – was determined as 2420 ng/mL; the MRT – broadly, a mean duration of stay, worked out from the concentration-time curve – was found to be 2 h; the Tmax (commonly the time from dosing to the highest level) was found to be 0.5 h. Besides, the half-life (usually how long it takes for the measured level to halve) in data set [2] is 1.6 h. The pEC50 (as a rule, the negative decadic logarithm of the EC50, by convention in mol/L) in data set [3] is 7.53.
As to `CC(C)N1CCc2cc(C(=O)Nc3cccc(-c4cccc(NC(=O)c5nc6c(n5C)CCN(CCC57C8C9C5C5C7C8C95C(=O)O)C6)c4Cl)c3Cl)ncc2C1` (stereo not shown) [Example 59, 4-(2-(2-((2,2′-dichloro-3′-(7-isopropyl-5,6,7,8-tetrahydro-2,7-naphthyridine-3-carboxamido)-[1,1′-biphenyl]-3-yl)carbamoyl)-1-methyl-1,4,6,7-tetrahydro-5H-imidazo[4,5-c]pyridin-5-yl)ethyl)cubane-1-carboxylic acid], in data set [1], the pIC50 is 9.04. In addition, in data set [2], the AUC(0-t) turned out to be 2300 ng·h/mL, the highest level (Cmax) was 616 ng/mL, the MRT was 2.4 h and the Tmax stood at 0.5 h. The compound further showed a half-life in data set [2] of 1.2 h. Besides, in data set [3], the pEC50 was 7.47.
As to `CC(C)N1CCc2cc(C(=O)Nc3cccc(-c4cccc(NC(=O)c5nc6c(n5C)CCN(CCC57CCC(C(=O)O)(CC5)C7)C6)c4Cl)c3Cl)ncc2C1` [Example 1, 4-(2-(2-((2,2′-dichloro-3′-(7-isopropyl-5,6,7,8-tetrahydro-2,7-naphthyridine-3-carboxamido)-[1,1′-biphenyl]-3-yl)carbamoyl)-1-methyl-1,4,6,7-tetrahydro-5H-imidazo[4,5-c]pyridin-5-yl)ethyl)bicyclo[2.2.1]heptane-1-carboxylic acid], in data set [1], the pIC50 was 9.14. For the same compound, in data set [2], the AUC(0-t) is 18400 ng·h/mL, the peak level (Cmax) was 2850 ng/mL, the MRT turned out to be 4.9 h and the Tmax turned out to be 0.5 h. Besides, the half-life in data set [2] was 3.6 h. The pEC50 in data set [3] was 7.27.
In data set [1], `CN1CCc2cc(C(=O)Nc3cccc(-c4cccc(NC(=O)c5nc6c(n5C)CCN(CCC57CCC(C(=O)O)(CC5)C7)C6)c4Cl)c3Cl)ncc2C1` [Example 2, 4-(2-(2-((2,2′-dichloro-3′-(7-methyl-5,6,7,8-tetrahydro-2,7-naphthyridine-3-carboxamido)-[1,1′-biphenyl]-3-yl)carbamoyl)-1-methyl-1,4,6,7-tetrahydro-5H-imidazo[4,5-c]pyridin-5-yl)ethyl)bicyclo[2.2.1] heptane-1-carboxylic acid] showed a pIC50 of 9.75. Besides, in data set [2], the AUC(0-t) amounted to 1820 ng·h/mL, the Cmax amounted to 2320 ng/mL, the MRT was determined as 1.8 h and the Tmax was determined as 0.083 h. Moreover, the half-life in data set [2] was 4 h. In data set [3], the pEC50 was 7.30.
Turning to `CC(C)N1CCc2cc(C(=O)Nc3cccc(-c4cccc(NC(=O)c5nc6c(n5C)CCN(CCC57CCC(C(=O)O)(CC5)CC7)C6)c4Cl)c3Cl)ncc2C1` [Example 58, 4-(2-(2-((2,2′-dichloro-3′-(7-isopropyl-5,6,7,8-tetrahydro-2,7-naphthyridine-3-carboxamido)-[1,1′-biphenyl]-3-yl)carbamoyl)-1-methyl-1,4,6,7-tetrahydro-5H-imidazo[4,5-c]pyridin-5-yl)ethyl)bicyclo [2.2.2]octane-1-carboxylic acid], the negative logarithm of the IC50 (pIC50) in data set [1] is 9.14. In data set [2], the AUC(0-t) came out at 13900 ng·h/mL, the Cmax stood at 1630 ng/mL, the mean residence time MRT was 5.7 h and the Tmax worked out at 1 h. In data set [2], the half-life is 3.8 h. Moreover, the negative-log EC50 (pEC50) in data set [3] was 7.27.
Compound `Cn1c(C(=O)Nc2cccc(-c3cccc(NC(=O)c4cc5c(cn4)CN(C4COC4)CC5)c3Cl)c2Cl)nc2c1CCN(CCC13CCC(C(=O)O)(CC1)C3)C2` [Example 11, 4-(2-(2-((2,2′-dichloro-3′-(7-(oxetan-3-yl)-5,6,7,8-tetrahydro-2,7-naphthyridine-3-carboxamido)-[1,1′-biphenyl]-3-yl)carbamoyl)-1-methyl-1,4,6,7-tetrahydro-5H-imidazo[4,5-c]pyridin-5-yl)ethyl)bicyclo [2.2.1]heptane-1-carboxylic acid] showed a negative logarithm of the IC50 (pIC50) in data set [1] of 9.96. Further, the negative logarithm of the EC50 (pEC50) in data set [3] is 7.26.
